Assay results taken from patent publication US9655877B2, “Therapeutic methods for treating inflammation and immune system disorders” (priority 2009, dated 2017).

Assays:
[1] = tested on: nitrite production in BV-2 cells; experiment: LPS-induced nitrite (nitric oxide) production in BV-2 cells, Griess reagent; format: cell-based, murine; conditions: 100 ng/ml LPS, 18 hours
Procedure: Nitrite levels in the culture media were determined using Griess reagent under manufacturer's instructions (Sigma Aldrich, St. Louis, Mo.). Fresh culture media were used as blanks and the nitrite levels were determined by using a standard sodium nitrite curve.
The effect of each extract on nitric oxide production is evaluated according to the procedures illustrated as follows. Briefly, murine microglia cell line BV-2 is maintained in Dulbecco's modified Eagle's minimum essential medium (DMEM) supplemented with 10% FBS and 1% penicillin and streptomycin (Invitrogen Life Technologies, Carlsbad, Calif.) at 37° C. in a humidified atmosphere with 5% CO2 in warm air.
0.1 M cells/ml BV-2 cells are seeded in 24-well plates (0.5 ml in each well). Cells are treated with 0.05% DMSO; 0.05% DMSO and 100 ng/ml LPS; or 100 ng/ml LPS and 50 μg/ml of an LCX extract for 18 hours, respectively. The culture supernatant is collected. The nitric oxide level is measured using the Griess reagent according to standard manufacturer's instructions (Sigma Aldrich, St. Louis, Mo.), and assessed using the standard sodium nitrite curve.
The effect of senkyunolide A (Sen A) and Z-ligustilide (Z-Lig) at various concentrations on LPS-induced nitrite production is further evaluated in this Example. Briefly, 0.1 M cells/ml BV-2 cells are seeded in 24-well plates (0.5 ml in each well). Cells are treated with 0.05% DMSO; 0.05% DMSO and 100 ng/ml LPS; 50 μg/ml Sen A/Z-Lig; or 100 ng/ml LPS and Sen A/Z-Lig at a concentration of 1 μg/ml, 5 μg/ml, 10 μg/ml, 25 μg/ml, and 50 μg/ml for 18 hours, respectively. The culture supernatant is collected. The nitric oxide level is measured using the Griess reagent according to standard manufacturer's instructions (Sigma Aldrich, St. Louis, Mo.), and evaluated using the standard sodium nitrite curve.

Neuro-2a cells [2] = experiment: Neuro-2a cells treated with compound alone in the culture media; format: cell-based, murine; conditions: compound alone in the culture media (data not shown)
Source text: Specifically, a significant reduction in cell death, to less than 15% and 25%, respectively, was observed.

Neuro-2a cells [3] = experiment: Conditioned culture medium transfer model (LPS-treated BV-2 supernatant on Neuro-2a), MTT assay; format: cell-based, murine; conditions: supernatant of BV-2 cells treated with 100 ng/ml LPS and 50 μg/ml compound 18 h, on Neuro-2a 48 h; LPS only more than 40%
Procedure: BV-2 cells (3×10^5 cells/ml) were first treated with 100 ng/ml LPS for 18 h, in the presence of either 0.05% DMSO or 50 μg/ml senkyunolide A or Z-ligustilide. After centrifugation, the supernatants from BV-2 cells were transferred to Neuro-2a cells ([…]) for 48 h. Viability of Neuro-2a cells was measured using MTT assays. Results are shown as mean SD from three independent experiments. *p<0.05 compared with DMSO+LPS.
BV-2 cells were seeded at 3×10^5 cells/ml in 12-well culture plates (1 ml in each well). They were co-treated with or without 100 ng/ml LPS, in the presence of 0.05% DMSO, 50 μg/ml senkyunolide A, or 50 μg/ml Z-ligustilide, for 18 h. The supernatants were then collected and centrifuged at 13,200 rpm for 3 min. The resulting supernatants were then transferred to Neuro-2a cells (1×10^5 cells/ml in 24-well culture plates), which were incubated for another 48 h. Cell viability of Neuro-2a cells was measured by MTT assay.
Briefly, to investigate the physiological significance of Sen A and Z-Lig, a conditioned culture medium transfer model, commonly used for studying neuronal cell death induced by microglial activation, was adopted. After BV-2 cells were challenged with LPS, the supernatants were collected and centrifuged. The conditioned culture media were then transferred to Neuro-2a cell cultures.

NF-kB p65 = experiment: Nuclear translocation of NF-kB p65 in LPS-stimulated BV-2 cells, Western blot; format: cell-based, murine; conditions: 50 μg/ml pretreatment 1 h, 100 ng/ml LPS 30 min
Procedure: BV-2 cells (2×10^5 cells/ml) were pretreated with either 0.05% DMSO or 50 μg/ml senkyunolide A for 1 h, followed by treatment with 100 ng/ml LPS for another 30 min. (A) Cytoplasmic proteins were extracted and analyzed by Western Blot using antibodies specific for phospho-p38, phospho-JNK, phospho-ERK 1/2 and actin. (B) Nuclear proteins were extracted and analyzed by Western Blot against NF-kB p65 and lamin B antibodies. 10^5 cells/ml BV-2 cells were first pretreated with senkyunolide A for 1 h. After induction by 100 ng/ml LPS for 30 min, the culture medium was discarded. Cytoplasmic proteins and nuclear proteins were extracted separately by buffer A and buffer C as described in our previous report^28. The cell lysates were separated by 10% SDS-polyacrylamide gel electrophoresis and transferred to a nitrocellulose membrane (Schleicher & Schuell, Germany). The cell lysates were incubated with specific antibodies (phospho-MAP kinases, Actin, NF-kB p65 and Lamin B) overnight. After three washes, the membranes were incubated with the corresponding secondary antibodies. The bands were detected using the Enhanced Chemiluminescence System (GE Healthcare, Piscataway, N.J., USA) according to the manufacturer's instructions. The NF-kB pathway plays a key role in the transcriptional regulation of inflammatory mediators. […]

[4] = tested on: TNF-α production in human blood macrophages; experiment: LPS-induced TNF-α production in human blood macrophages (PBMac), ELISA; format: cell-based; conditions: 25 or 50 μg/ml for 24 hours, then 1 ng/ml LPS for 24 hours
Procedure: To measure the TNF-α level in cell culture supernatants, BV-2 cells were seeded at 1×10^5 cells/ml in the volume of 0.5 ml in 24-well culture plates. They were co-treated with or without 100 ng/ml LPS in the absence or presence of indicated concentrations of bioactive compounds of LCX for 18 h. In addition, PBMac cells were seeded at 1×10^6 cells/ml in the volume of 0.5 ml in 24-well plates. After incubation, the supernatants were collected and TNF-α levels were determined by ELISA according to the manufacturer's instructions (R&D Systems). […] To study the effect of Sen A and Z-Lig at various concentrations on TNF-α production, 1×10^6 cells/ml (FIG. 6) PBMac cells are seeded in 24-well plates (0.5 ml in each well). Cells are treated with 25 μg/ml or 50 μg/ml Sen A, Z-Lig, or DMSO for 24 hours prior to the addition of 1 ng/ml LPS, and further incubated for another 24 hours. The culture supernatants are collected and the level of secreted TNF-α is measured by ELISA according to the manufacturer's instructions (R&D Systems, Minneapolis, Minn.).

CCCC[C@H]1OC(=O)C2=C1CCC=C2 [senkyunolide A]
reduction in nitrite production ([1]; 10 μg/ml): approximately 4 fold | reduction in nitrite production ([1]; 25 μg/ml): ~20 fold | effect on nitrite production ([1]; 50 μg/ml): almost completely inhibits nitrite production | cell death with compound alone (Neuro-2a cells [2]): did not show cell death | cell death of Neuro-2a cells (Neuro-2a cells [3]): less than 15% | effect on translocation of NF-kB p65 into the nucleus (NF-kB p65): did not exert an inhibitory effect | effect on endotoxin-induced TNF-α production [4]: suppress endotoxin-induced TNF-α production in a dose-dependent manner
